Reference: PubChem BioAssay (NCI)
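Tested at 5 concentrations; 48 h exposure; 96-well plates; endpoints linearly interpolated, else capped at highest concentration. GI50: concentration for 50% inhibition of growth. TGI is the concentration that stops growth completely.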

Experiments:
Assay in all cases: inhibition of tumour cell growth, NCI panel, 48 h
[1] = system: 786-0 renal
[2] = system: A498 renal
[3] = system: A549 NSCLC
[4] = system: ACHN renal
[5] = system: BT-549 breast
[6] = system: CAKI-1 renal
[7] = system: CCRF-CEM leukemia
[8] = system: COLO 205 colon
[9] = system: DU-145 prostate
[10] = system: EKVX NSCLC
[11] = system: HCC-2998 colon
[12] = system: HCT-116 colon
[13] = system: HCT-15 colon
[14] = system: HOP-62 NSCLC
[15] = system: HOP-92 NSCLC
[16] = system: HS 578T breast
[17] = system: HT29 colon
[18] = system: IGROV1 ovarian
[19] = system: K-562 leukemia
[20] = system: KM12 colon
[21] = system: LOX IMVI melanoma
[22] = system: M14 melanoma
[23] = system: MALME-3M melanoma
[24] = system: MCF7 breast
[25] = system: MDA-MB-231 breast
[26] = system: MDA-MB-435
[27] = system: MDA-N
[28] = system: MOLT-4 leukemia
[29] = system: NCI-H226 lung
[30] = system: NCI-H23 lung
[31] = system: NCI-H460 lung
[32] = system: NCI-H522 lung
[33] = system: NCI/ADR-RES ovarian
[34] = system: OVCAR-3 ovarian
[35] = system: OVCAR-4 ovarian
[36] = system: OVCAR-5 ovarian
[37] = system: OVCAR-8 ovarian
[38] = system: PC-3 prostate
[39] = system: RPMI-8226 leukemia
[40] = system: RXF 393 renal
[41] = system: SF-268 CNS
[42] = system: SF-295 CNS
[43] = system: SF-539 CNS
[44] = system: SK-MEL-2 melanoma
[45] = system: SK-MEL-28 melanoma
[46] = system: SK-MEL-5 melanoma
[47] = system: SK-OV-3 ovarian
[48] = system: SN12C renal
[49] = system: SNB-19 CNS
[50] = system: SNB-75 CNS
[51] = system: SR leukemia
[52] = system: SW-620 colon
[53] = system: T-47D breast
[54] = system: TK-10 renal
[55] = system: U251 CNS
[56] = system: UACC-257 melanoma
[57] = system: UACC-62 melanoma
[58] = system: UO-31 renal

`CCOC(=O)/C(=C\c1ccnc2ccccc12)P(=O)(OCC)OCC` showed a TGI [1] of 6.14 µM, a TGI [2] of 5.98 µM and a TGI [3] of 14.7 µM. For the same compound, the TGI [4] was 4.82 µM, the TGI [5] was 4.22 µM and the TGI [6] was 7.66 µM. The TGI [7] was 1.96 µM, the TGI [8] was 4.63 µM and the TGI [9] was 7.52 µM. It also gave a TGI [10] of 15.1 µM, a TGI [11] of 26.7 µM and a TGI [12] of 3.61 µM. It also gave a TGI [13] of 3.3 µM, a TGI [14] of 5.91 µM and a TGI [15] of 6.93 µM. It also gave a TGI [16] of 8.63 µM, a TGI [17] of 4.62 µM and a TGI [18] of 4.33 µM. For the same compound, the TGI [19] was 9.96 µM, the TGI [20] was 13.9 µM and the TGI [21] was 3.43 µM. The TGI [22] was 5.02 µM, the TGI [23] was 3.71 µM and the TGI [24] was 14.7 µM. For the same compound, the TGI [25] was 8.84 µM, the TGI [26] was 9.95 µM and the TGI [27] was 6.74 µM. The TGI [28] was greater than 100 µM, the TGI [29] was 31.3 µM and the TGI [30] was 4.22 µM. The TGI [31] was 8.72 µM, the TGI [32] was 3.18 µM and the TGI [33] was 5.9 µM. It also gave a TGI [34] of 4.52 µM, a TGI [35] of 6.61 µM and a TGI [36] of 6.78 µM. It also gave a TGI [37] of 7.96 µM, a TGI [38] of 16.8 µM and a TGI [39] of 5.93 µM. For the same compound, the TGI [40] was 4.41 µM, the TGI [41] was 6.3 µM and the TGI [42] was 10.5 µM. The TGI [43] was 3.32 µM, the TGI [44] was 4.49 µM and the TGI [45] was 3.35 µM. The TGI [46] was 10.7 µM, the TGI [47] was 15.5 µM and the TGI [48] was 9.19 µM. It also gave a TGI [49] of 15.3 µM, a TGI [50] of 12 µM and a TGI [51] of 5.38 µM. The TGI [52] was 5.27 µM, the TGI [53] was 9.11 µM and the TGI [54] was 14 µM. The TGI [55] was 9.51 µM, the TGI [56] was 14 µM and the TGI [57] was 10.4 µM.

`C[n+]1c2cc(N)ccc2cc2ccc(N)cc21` (tested in a mixture with another compound) was tested, and the GI50 [1] was 0.32 µM, the TGI [1] was 2.29 µM and the GI50 [2] was 0.133 µM. It also gave a TGI [2] of 0.515 µM, a GI50 [3] of 0.0749 µM and a TGI [3] of 10.1 µM. For the same compound, the GI50 [4] was 0.304 µM, the TGI [4] was 3.59 µM and the GI50 [5] was 0.624 µM. The TGI [5] was 5.25 µM, the GI50 [6] was 0.429 µM and the TGI [6] was 3.54 µM. It also gave a GI50 [8] of 0.148 µM, a TGI [8] of 1.3 µM and a GI50 [9] of 0.584 µM. The TGI [9] was 4.88 µM, the GI50 [10] was 0.261 µM and the TGI [10] was 1.77 µM. It also gave a GI50 [11] of 0.221 µM, a TGI [11] of 1.44 µM and a GI50 [12] of 0.345 µM. It also gave a GI50 [13] of 0.512 µM, a TGI [13] of 4.71 µM and a GI50 [14] of 0.63 µM. For the same compound, the TGI [14] was 5.37 µM, the GI50 [15] was 0.273 µM and the TGI [15] was 1.09 µM. For the same compound, the GI50 [16] was 0.687 µM, the TGI [16] was 3.56 µM and the GI50 [17] was 0.431 µM. It also gave a TGI [17] of 3.87 µM, a GI50 [18] of 0.14 µM and a TGI [18] of 1.48 µM. The GI50 [19] was 0.2 µM, the TGI [19] was 1.25 µM and the GI50 [20] was 0.21 µM. The TGI [20] was 1.37 µM, the GI50 [21] was 0.307 µM and the TGI [21] was 1.46 µM. The GI50 [22] was 1.04 µM, the TGI [22] was 5.21 µM and the GI50 [23] was 0.258 µM. It also gave a TGI [23] of 1.04 µM, a GI50 [24] of 0.372 µM and a TGI [24] of 17.9 µM. For the same compound, the GI50 [25] was 0.618 µM, the TGI [25] was 2.5 µM and the GI50 [26] was 0.615 µM. It also gave a TGI [26] of 2.1 µM, a GI50 [27] of 0.64 µM and a TGI [27] of 2.06 µM. The GI50 [28] was 0.209 µM, the TGI [28] was 0.746 µM and the GI50 [29] was 0.291 µM. The TGI [29] was 1.79 µM, the GI50 [30] was 0.292 µM and the TGI [30] was 1.43 µM. It also gave a GI50 [31] of 0.269 µM, a GI50 [32] of 0.217 µM and a TGI [32] of 0.839 µM. The GI50 [33] was 0.746 µM, the TGI [33] was 4.84 µM and the GI50 [34] was 1.16 µM. It also gave a TGI [34] of 8.38 µM, a GI50 [35] of 0.646 µM and a TGI [35] of 2.68 µM. It also gave a GI50 [36] of 0.405 µM, a TGI [36] of 11.1 µM and a GI50 [37] of 0.377 µM. For the same compound, the TGI [37] was 2.23 µM, the GI50 [38] was 0.332 µM and the TGI [38] was 12.9 µM. For the same compound, the GI50 [39] was 0.345 µM, the TGI [39] was 1.68 µM and the GI50 [40] was 1.12 µM. For the same compound, the TGI [40] was 3.41 µM, the GI50 [41] was 0.265 µM and the TGI [41] was 1.29 µM. The GI50 [42] was 0.809 µM, the TGI [42] was 4.62 µM and the GI50 [43] was 0.498 µM. For the same compound, the TGI [43] was 6.22 µM, the GI50 [44] was 1.62 µM and the TGI [44] was 15.3 µM. It also gave a GI50 [45] of 1.33 µM, a TGI [45] of 7.48 µM and a GI50 [46] of 0.616 µM. The TGI [46] was 2.25 µM, the GI50 [47] was 1.35 µM and the TGI [47] was 6.15 µM. It also gave a GI50 [48] of 0.326 µM, a TGI [48] of 1.75 µM and a GI50 [49] of 0.578 µM. The TGI [49] was 3.94 µM, the GI50 [50] was 0.314 µM and the TGI [50] was 1.38 µM. It also gave a GI50 [51] of 0.169 µM, a TGI [51] of 0.537 µM and a GI50 [52] of 0.0791 µM. It also gave a TGI [52] of 6.2 µM, a GI50 [53] of 0.33 µM and a TGI [53] of 3.02 µM. It also gave a GI50 [54] of 1.04 µM, a TGI [54] of 7.49 µM and a GI50 [55] of 0.448 µM. It also gave a TGI [55] of 3.65 µM, a GI50 [56] of 0.337 µM and a TGI [56] of 2.04 µM. For the same compound, the GI50 [57] was 0.435 µM, the TGI [57] was 1.94 µM and the GI50 [58] was 0.106 µM. It also gave a TGI [58] of 0.598 µM.

`Cc1nc2c(=O)n(C)c(=O)nc-2n(CCO)c1C` gave a TGI [1] greater than 100 µM, a TGI [2] greater than 100 µM and a TGI [3] greater than 100 µM. It also gave a TGI [4] greater than 100 µM, a TGI [5] greater than 100 µM and a TGI [6] greater than 100 µM. It also gave a TGI [7] greater than 100 µM, a TGI [8] greater than 100 µM and a TGI [9] greater than 100 µM. It also gave a TGI [10] greater than 100 µM, a TGI [11] greater than 100 µM and a TGI [12] greater than 100 µM. For the same compound, the TGI [13] was greater than 100 µM, the TGI [14] was greater than 100 µM and the TGI [15] was greater than 100 µM. For the same compound, the TGI [16] was greater than 100 µM, the TGI [17] was greater than 100 µM and the TGI [18] was greater than 100 µM. It also gave a TGI [19] greater than 100 µM, a TGI [20] greater than 100 µM and a TGI [21] greater than 100 µM. It also gave a TGI [22] greater than 100 µM, a TGI [23] greater than 100 µM and a TGI [24] greater than 100 µM. For the same compound, the TGI [25] was greater than 100 µM, the TGI [26] was greater than 100 µM and the TGI [27] was greater than 100 µM. It also gave a TGI [28] greater than 100 µM, a TGI [29] greater than 100 µM and a TGI [30] greater than 100 µM. It also gave a TGI [31] greater than 100 µM, a TGI [32] greater than 100 µM and a TGI [33] greater than 100 µM. The TGI [34] was greater than 100 µM, the TGI [35] was greater than 100 µM and the TGI [36] was greater than 100 µM. For the same compound, the TGI [37] was greater than 100 µM, the TGI [38] was greater than 100 µM and the TGI [39] was greater than 100 µM. For the same compound, the TGI [40] was greater than 100 µM, the TGI [41] was greater than 100 µM and the TGI [42] was greater than 100 µM. The TGI [43] was greater than 100 µM, the TGI [44] was greater than 100 µM and the TGI [45] was greater than 100 µM. It also gave a TGI [46] greater than 100 µM, a TGI [47] greater than 100 µM and a TGI [48] greater than 100 µM. For the same compound, the TGI [49] was greater than 100 µM, the TGI [50] was greater than 100 µM and the TGI [51] was greater than 100 µM. For the same compound, the TGI [52] was greater than 100 µM, the TGI [53] was greater than 100 µM and the TGI [54] was greater than 100 µM. It also gave a TGI [55] greater than 100 µM, a TGI [56] greater than 100 µM and a TGI [57] greater than 100 µM. The TGI [58] was greater than 100 µM.
